Results as given in PubChem BioAssay AID1919002 (Molecular Pharmacology Branch, DTP, NCI, 2023).
“And” between values parts separate entries of the source, which are not always exact repeats. Identical values can stand only once.

Tested on: 743489-274-T-PDC complex spheroid growth
Assay: Anticancer human tumor 743489-274-T-PDC patient-derived renal cell carcinoma cell line growth inhibition [AhR]
Conditions: for viability, T/C: stronger effect = lower value
Summary of the method: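 Agents were dosed in half-log steps down from roughly clinical Cmax, or from 10 microM where Cmax was unknown, alone and with AhR antagonists. Read-out: percent test/control growth of tumor spheroids containing HUVEC and MSC stromal cells.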

[1] = curve of first compound, second compound 0.1 µM
[2] = curve of first compound, second compound 0.316 µM
[3] = curve of first compound, second compound 1 µM
[4] = curve of first compound, second compound 3.16 µM
[5] = curve of first compound, second compound 10 µM
[6] = second compound 0.1 µM, first compound 0.0316 µM
[7] = second compound 0.1 µM, first compound 0.1 µM
[8] = second compound 0.1 µM, first compound 0.316 µM
[9] = second compound 0.1 µM, first compound 1 µM
[10] = second compound 0.1 µM, first compound 3.16 µM
[11] = second compound 0.1 µM, first compound 10 µM
[12] = second compound 0.316 µM, first compound 0.0316 µM
[13] = second compound 0.316 µM, first compound 0.1 µM
[14] = second compound 0.316 µM, first compound 0.316 µM
[15] = second compound 0.316 µM, first compound 1 µM
[16] = second compound 0.316 µM, first compound 3.16 µM
[17] = second compound 0.316 µM, first compound 10 µM
[18] = second compound 1 µM, first compound 0.0316 µM
[19] = second compound 1 µM, first compound 0.1 µM
[20] = second compound 1 µM, first compound 0.316 µM
[21] = second compound 1 µM, first compound 1 µM
[22] = second compound 1 µM, first compound 3.16 µM
[23] = second compound 1 µM, first compound 10 µM
[24] = second compound 3.16 µM, first compound 0.0316 µM
[25] = second compound 3.16 µM, first compound 0.1 µM
[26] = second compound 3.16 µM, first compound 0.316 µM
[27] = second compound 3.16 µM, first compound 1 µM
[28] = second compound 3.16 µM, first compound 3.16 µM
[29] = second compound 3.16 µM, first compound 10 µM
[30] = second compound 10 µM, first compound 0.0316 µM
[31] = second compound 10 µM, first compound 0.1 µM
[32] = second compound 10 µM, first compound 0.316 µM
[33] = second compound 10 µM, first compound 1 µM
[34] = second compound 10 µM, first compound 3.16 µM
[35] = second compound 10 µM, first compound 10 µM
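Note: spheroids exposed to agents for 7 days before readout.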
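Throughout, for viability, T/C: 100% = DMSO vehicle control wells.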

`CC1COCCN1c1cc(C2(S(C)(=N)=O)CC2)nc(-c2ccnc3[nH]ccc23)n1` (stereo unspecified) + Cc1cncc(-c2nc(NCCc3c[nH]c4ccccc34)c3ncn(C(C)C)c3n2)c1 showed an IC50 [1] greater than 10 µM, an IC50 [2] greater than 10 µM and an IC50 [3] greater than 10 µM. The IC50 [4] was greater than 10 µM, the IC50 [5] was greater than 10 µM and the viability, T/C [6] was 104%. It also gave a viability, T/C [7] of 93.8%, a viability, T/C [8] of 89.3% and a viability, T/C [9] of 86%. It also gave a viability, T/C [10] of 85.9%, a viability, T/C [11] of 85.4% and a viability, T/C [12] of 87.9%. The viability, T/C [13] was 89.8%, the viability, T/C [14] was 85.1% and the viability, T/C [15] was 86.4%. For the same molecule, the viability, T/C [16] was 90%, the viability, T/C [17] was 84.3% and the viability, T/C [18] was 88.7%. For the same molecule, the viability, T/C [19] was 91.7%, the viability, T/C [20] was 97.3% and the viability, T/C [21] was 98.1%. It also gave a viability, T/C [22] of 84.1%, a viability, T/C [23] of 83.7% and a viability, T/C [24] of 109%. The viability, T/C [25] was 108%, the viability, T/C [26] was 105% and the viability, T/C [27] was 90.9%. It also gave a viability, T/C [28] of 91.4%, a viability, T/C [29] of 85.7% and a viability, T/C [30] of 97.3%. The viability, T/C [31] was 117%, the viability, T/C [32] was 92.5% and the viability, T/C [33] was 107%. The viability, T/C [34] was 105% and the viability, T/C [35] was 99.1%.

For `CC1COCCN1c1cc(-c2ccnn2C)c2ccnc(-c3ccn[nH]3)c2n1` (stereo unspecified) + Cc1cncc(-c2nc(NCCc3c[nH]c4ccccc34)c3ncn(C(C)C)c3n2)c1, the IC50 [1] was greater than 1 µM, the IC50 [2] was greater than 1 µM and the IC50 [3] was greater than 1 µM. It also gave an IC50 [4] greater than 1 µM, an IC50 [5] greater than 1 µM and a viability, T/C (second compound 0.1 µM, first compound 0.00316 µM) of 106%. It also gave a viability, T/C (second compound 0.1 µM, first compound 0.01 µM) of 106%, a viability, T/C [6] of 113% and a viability, T/C [7] of 105%. For the same molecule, the viability, T/C [8] was 100%, the viability, T/C [9] was 84.5% and the viability, T/C (second compound 0.316 µM, first compound 0.00316 µM) was 99.7%. The viability, T/C (second compound 0.316 µM, first compound 0.01 µM) was 107%, the viability, T/C [12] was 109% and the viability, T/C [13] was 105%. The viability, T/C [14] was 95.4%, the viability, T/C [15] was 80.3% and the viability, T/C (second compound 1 µM, first compound 0.00316 µM) was 108%. The viability, T/C (second compound 1 µM, first compound 0.01 µM) was 104%, the viability, T/C [18] was 116% and the viability, T/C [19] was 99.8%. It also gave a viability, T/C [20] of 102%, a viability, T/C [21] of 85% and a viability, T/C (second compound 3.16 µM, first compound 0.00316 µM) of 120%. For the same molecule, the viability, T/C (second compound 3.16 µM, first compound 0.01 µM) was 126%, the viability, T/C [24] was 122% and the viability, T/C [25] was 113%. It also gave a viability, T/C [26] of 99.4%, a viability, T/C [27] of 89.1% and a viability, T/C (second compound 10 µM, first compound 0.00316 µM) of 116%. The viability, T/C (second compound 10 µM, first compound 0.01 µM) was 148%, the viability, T/C [30] was 143% and the viability, T/C [31] was 142%. For the same molecule, the viability, T/C [32] was 124% and the viability, T/C [33] was 109%.

With `Nc1ncn(C2CC(O)C(CO)O2)c(=O)n1` (stereo unspecified) the viability, T/C (compound 0.00316 µM) was 94.8% and 98.8% and 101%, the viability, T/C (compound 0.01 µM) was 112% and 106% (2×) and the viability, T/C (compound 0.0316 µM) was 102% and 106% and 105%. For the same molecule, the viability, T/C (compound 0.1 µM) was 90.8% and 93.7% and 102%, the viability, T/C (compound 0.316 µM) was 100% and 96.7% and 104% and the viability, T/C (compound 1 µM) was 94% and 93.5% (2×). For the same molecule, the IC50 (curve of compound) was greater than 1 µM.

For `CC1(C)CCC(CN2CCN(c3ccc(C(=O)NS(=O)(=O)c4ccc(NCC5CCOCC5)c([N+](=O)[O-])c4)c(Oc4cnc5[nH]ccc5c4)c3)CC2)=C(c2ccc(Cl)cc2)C1`, the viability, T/C (compound 0.0316 µM) was 109% and 96.8% and 101%, the viability, T/C (compound 0.1 µM) was 112% and 106% and 103% and the viability, T/C (compound 0.316 µM) was 112% (2×) and 103%. The viability, T/C (compound 1 µM) was 109% and 106% (2×), the viability, T/C (compound 3.16 µM) was 120% and 117% and 108% and the viability, T/C (compound 10 µM) was 117% and 96.9% and 109%. It also gave an IC50 (curve of compound) greater than 10 µM.

`CC(C)c1c(-c2ccccc2)nc2c(C#N)c[nH]n2c1=O` + Cc1cncc(-c2nc(NCCc3c[nH]c4ccccc34)c3ncn(C(C)C)c3n2)c1 showed an IC50 [1] greater than 10 µM, an IC50 [2] greater than 10 µM and an IC50 [3] greater than 10 µM. The IC50 [4] was greater than 10 µM, the IC50 [5] was greater than 10 µM and the viability, T/C [6] was 101%. For the same molecule, the viability, T/C [7] was 126%, the viability, T/C [8] was 104% and the viability, T/C [9] was 103%. It also gave a viability, T/C [10] of 96.2%, a viability, T/C [11] of 104% and a viability, T/C [12] of 112%. It also gave a viability, T/C [13] of 104%, a viability, T/C [14] of 101% and a viability, T/C [15] of 107%. It also gave a viability, T/C [16] of 100%, a viability, T/C [17] of 96.7% and a viability, T/C [18] of 107%. The viability, T/C [19] was 103%, the viability, T/C [20] was 111% and the viability, T/C [21] was 96.7%. The viability, T/C [22] was 105%, the viability, T/C [23] was 102% and the viability, T/C [24] was 114%. The viability, T/C [25] was 119%, the viability, T/C [26] was 121% and the viability, T/C [27] was 119%. For the same molecule, the viability, T/C [28] was 110%, the viability, T/C [29] was 115% and the viability, T/C [30] was 126%. For the same molecule, the viability, T/C [31] was 141%, the viability, T/C [32] was 133% and the viability, T/C [33] was 125%. The viability, T/C [34] was 109% and the viability, T/C [35] was 134%.

With `O=C(C=Cn1cnc(-c2cc(C(F)(F)F)cc(C(F)(F)F)c2)n1)NNc1cnccn1` + CC(CO)NC(=O)c1cc(-c2ccc(Cl)cc2)nn(-c2cnn(C)c2)c1=O the IC50 [1] was greater than 3 µM, the IC50 [2] was greater than 3 µM and the IC50 [3] was greater than 3 µM. The IC50 [4] was greater than 3 µM, the IC50 [5] was greater than 3 µM and the viability, T/C (second compound 0.1 µM, first compound 0.00949 µM) was 108%. It also gave a viability, T/C (second compound 0.1 µM, first compound 0.03 µM) of 102%, a viability, T/C (second compound 0.1 µM, first compound 0.0949 µM) of 111% and a viability, T/C (second compound 0.1 µM, first compound 0.3 µM) of 122%. For the same molecule, the viability, T/C (second compound 0.1 µM, first compound 0.949 µM) was 114%, the viability, T/C (second compound 0.1 µM, first compound 3 µM) was 98.3% and the viability, T/C (second compound 0.316 µM, first compound 0.00949 µM) was 86.7%. It also gave a viability, T/C (second compound 0.316 µM, first compound 0.03 µM) of 103%, a viability, T/C (second compound 0.316 µM, first compound 0.0949 µM) of 117% and a viability, T/C (second compound 0.316 µM, first compound 0.3 µM) of 115%. It also gave a viability, T/C (second compound 0.316 µM, first compound 0.949 µM) of 101%, a viability, T/C (second compound 0.316 µM, first compound 3 µM) of 90.3% and a viability, T/C (second compound 1 µM, first compound 0.00949 µM) of 94%. The viability, T/C (second compound 1 µM, first compound 0.03 µM) was 109%, the viability, T/C (second compound 1 µM, first compound 0.0949 µM) was 101% and the viability, T/C (second compound 1 µM, first compound 0.3 µM) was 123%. The viability, T/C (second compound 1 µM, first compound 0.949 µM) was 116%, the viability, T/C (second compound 1 µM, first compound 3 µM) was 94.1% and the viability, T/C (second compound 3.16 µM, first compound 0.00949 µM) was 96.7%. For the same molecule, the viability, T/C (second compound 3.16 µM, first compound 0.03 µM) was 101%, the viability, T/C (second compound 3.16 µM, first compound 0.0949 µM) was 112% and the viability, T/C (second compound 3.16 µM, first compound 0.3 µM) was 129%. The viability, T/C (second compound 3.16 µM, first compound 0.949 µM) was 105%, the viability, T/C (second compound 3.16 µM, first compound 3 µM) was 86.1% and the viability, T/C (second compound 10 µM, first compound 0.00949 µM) was 96.3%. The viability, T/C (second compound 10 µM, first compound 0.03 µM) was 110%, the viability, T/C (second compound 10 µM, first compound 0.0949 µM) was 104% and the viability, T/C (second compound 10 µM, first compound 0.3 µM) was 116%. It also gave a viability, T/C (second compound 10 µM, first compound 0.949 µM) of 94.9% and a viability, T/C (second compound 10 µM, first compound 3 µM) of 91.3%.

With `COc1cccc2c1C(=O)c1c(O)c3c(c(O)c1C2=O)CC(O)(C(=O)CO)CC3OC1CC(N)C(O)C(C)O1` (stereo unspecified) the viability, T/C (compound 0.0316 µM) was 100% and 108% and 103%, the viability, T/C (compound 0.1 µM) was 102% and 110% and 125% and the viability, T/C (compound 0.316 µM) was 101% and 112% and 108%. The viability, T/C (compound 1 µM) was 107% and 105% and 103%, the viability, T/C (compound 3.16 µM) was 88% and 77.8% and 89.9% and the viability, T/C (compound 10 µM) was 65.5% and 21.7% and 22.8%. For the same molecule, the IC50 (curve of compound) was > 10 µM and 5.59 µM and 6.23 µM.
